# According to patent publication US10961163B2, “Compositions and methods useful for enhancing the microbial conversion of nitrate into ammonium” (The Regents of the University of California, priority 2016, dated 2021):
# System: microbial enrichment cultures
# Assay: Inhibitory potency (IC50) of inorganic compounds against growth and ammonium production, microbial enrichment with yeast extract
# Format: cell-based
# Details: not given
row,Compound,NH4^+ IC50/growth IC50 ratio
1,Barium chloride dihydrate,0.1756
2,O.O.O.O.O.O=[Se]([O-])[O-].[Na+].[Na+] [Sodium selenite pentahydrate],0.2998
3,O=C([O-])[O-].[Na+].[Na+] [Sodium carbonate],0.5039
4,[I-].[Na+] [sodium iodide],0.2617
5,O.O.O.O.O.O.[Cl][Cr]([Cl])[Cl] [Chromium(III) Chloride Hexahydrate],0.0003
6,Sodium metavanadate,13.0898
7,O.O=P([O-])(O)O.[Na+] [Sodium phosphate monobasic monohydrate],0.3418
8,O=[Se](=O)(O)O [Sodium selenate],10.0581
9,Nickel (II) chloride hexahydrate,53.6273
10,N.N.O.O=S(O)O [Ammonium sulfite monohydrate],2.0739
11,C[C@H](CCC(=O)[O-])[C@H]1CC[C@H]2[C@@H]3[C@H](O)C[C@@H]4C[C@H](O)CC[C@]4(C)[C@H]3C[C@H](O)[C@]12C.O.[Na+] [Sodium cholate hydrate],5.9537
12,Sodium tungstate dihydrate,1.8289
13,Cl.NO [Hydroxylamine hydrochloride],0.3854
14,[O-][Cl+3]([O-])([O-])O [Sodium perchlorate monohydrate],5.2779
15,Sodium thiophosphate tribasic hydrate,0.8963
16,[Cl-].[Cs+] [Cesium chloride],30.1708
17,O=S(=O)([O-])[O-].[Na+].[Na+] [Sodium sulfate],1.0000
18,Sodium Chlorite,1.2683
19,[F-].[Na+] [sodium fluoride],1.6628
20,O.O.O.O.O.O=S([O-])([O-])=S.[Na+].[Na+] [Sodium thiosulfate pentahydrate],0.5741
21,[Cl-].[Li+] [Lithium chloride],3.4054
22,[Br-].[Na+] [sodium bromide],0.5766
23,Sodium deoxycholate monohydrate,0.0027

row,Compound,NH4^+ IC50/growth IC50 ratio
1,O.O.O.O.O.[Cd+2].[Cd+2].[Cl-].[Cl-].[Cl-].[Cl-] [Cadmium chloride hemipentahydrate],0.2809
2,Calcium chloride dihydrate,0.1455
3,[Cl-].[Cl-].[Cl-].[Eu+3] [Europium(III) chloride],0.1036
4,O=C([O-])O.[Na+] [Sodium bicarbonate],0.3242
5,[Cl-].[Cl-].[Cl-].[Ga+3] [Gallium(III)chloride],1.0037
6,[Cl-].[K+] [Potassium Chloride],0.4776
7,CS(=O)(=O)[O-].[Na+] [Sodium methanesulfonate],0.4289
8,[Na+].[O-][Cl+2]([O-])[O-] [Sodium Chlorate],1.9090
9,O=S(=O)([O-])[O-].[Ag+].[Ag+] [silver sulfate],1.9192
10,O.O.O.O.O.O.O.O=[As]([O-])([O-])O.[Na+].[Na+] [Sodium arsenate dibasic heptahydrate],3.2618
11,O=[N+]([O-])[O-].[Na+] [Sodium nitrate],3.4080
12,O=[As][O-].[Na+] [Sodium m-arsenite],3.9664
13,O=[PH](O)O [Sodium phosphite dibasic pentahydrate],1.3336
14,O.O=[Te]([O-])[O-].[K+].[K+] [Potassium tellurite hydrate],0.1044
15,[Na+].[O-][I+3]([O-])([O-])[O-] [Sodium periodate],7.8824
16,O.O.O.O.O.O.[Cl-].[Cl-].[Co+2] [Cobalt chloride hexahydrate],22.1846
17,[Cl-].[Na+] [Sodium Chloride],21.9487
18,O=S(=O)([O-])CCBr.[Na+] [Sodium 2-bromoethanesulfonate],5.3024
19,[Na+].[Na+].[O]=[Mo](=[O])([O-])[O-] [Sodium molybdate],6.7259
20,Manganese (II) chloride tetrahydrate,0.0037
21,O=[Te](=O)([O-])[O-].[K+].[K+] [potassium tellurate],1.7673
22,CC(=O)[O-].[Tl+] [Thallium(I) acetate],0.3751

# Same assay, conditions: microbial enrichment with complex carbon source (yeast extract), serial dilutions of inorganic compound; higher ratio favors ammonium production
row,Compound,NH4^+ IC50/growth IC50 ratio
1,"O=C1c2ccc(S(=O)(=O)O)cc2C(=O)c2cc(S(=O)(=O)O)ccc21 [AQDS, 9,10-Anthraquinone-2,7-disulphonic acid]",6.4905
2,O=C(O)CN(CC(=O)O)CC(=O)O [Nitrilotriacetic acid],0.4756
3,OCl [Sodium hypochlorite],0.0048
4,O=S(=O)([O-])CCS.[Na+] [Sodium 2-mercaptoethanesulfonate],13.0401
5,[Cl][Pd][Cl] [Palladium(II) chloride],0.4739
6,CS(C)(=O)=O [dimethyl sulfone],2.0187
7,copper (II) chloride dihydrate,0.1069
8,O=P([O-])(O)OP(=O)([O-])O.[Na+].[Na+] [Sodium pyrophosphate dibasic],0.6988
9,"O=C(O)CC(NCCNC(CC(=O)O)C(=O)O)C(=O)O (stereo not shown) [Ethylenediamine-N,N′-disuccinic acid]",44.3418
10,COc1cc(CO)ccc1O [Vanillyl Alcohol],2.0632
